Ends that are not written are not given here.
What was measured:
S. aureus strain 6850 = assay: flow cytometry of membrane depolarization (DiOC5), permeabilization (PI) and killing, PMP-susceptible strain; type: cell-based
From the text: (§1) Our recent studies have provided new evidence that PMPs differ in mechanisms of action from those of other antimicrobial peptides. We used flow cytometry to study the mechanisms of action of PMPs against S. aureus strain pair 6850 (PMP^S) and JB-1 (PMP^R) in vitro. Strain JB-1 is a menadione auxotroph of parent strain 6850, and has a decreased transcytoplasmic membrane potential (ΔΨ). We used the fluorescent probes dioxycarbocyanine (DiOC5) and propidium iodide (PI) to quantify the effects of PMP-2 and human defensin NP-1 (hNP-1) on ΔΨ and permeability, respectively. […] Menadione reconstituted the PMP^R strain ΔΨ to a level equivalent to the PMP^S strain. This was associated with increased depolarization, permeabilization, and killing of the PMP^R strain due to PMP-2. Therefore, the mechanism of PMP-2 action involves rapid, pH-dependent membrane permeabilization with membrane depolarization. These effects were different from hNP-1, or the cationic antibacterial agents protamine or gentamicin.
Flow cytometry can also be used to examine kinetics and mechanisms of the action of the peptides on bacterial membrane integrity and energetics. Peptides which differ in activity or specificity for their ability to depolarize and/or permeabilize microbial membranes can also be compared by analysis of membrane depolarization, and permeabilization. DiOC5 is a charged lipophilic dye which partitions into the cytoplasm, and is dependent on intact Δψ for intracellular retention. Organisms prepared as above are labeled in darkness for 30 minutes at about 20° C. in PBS containing 0.05 μM DiOC5. Organisms are resuspended to a concentration of 5×10^8 CFU/ml in K^+MEM containing an individual peptide, and incubated at 37° C. For flow cytometry, organisms are washed, sonicated, counted, and resuspended in K^+MEM buffer. Reductions in mean DiOC5 fluorescence relative to controls are interpreted to represent loss of DiOCs, indicating membrane depolarization. Positive control cells exposed to valinomycin, as well as control cells not exposed to any peptides, are analyzed for DiOC5 fluorescence in parallel.
Propidium iodide is excluded from cells with normal membrane integrity, but enters cells permealized to molecules ≧2 nm in diameter, and can be stimulated to emit fluorescence at >620 nm. […] Cells are washed in fresh K^+MEM, sonicated, counted, and resuspended in KIMEM buffer containing 20 μM propidium iodide. Control cells exposed to ethanol (positive control for permeabilization) are assessed for propidium iodide uptake in parallel. Increases in mean propidium iodide fluorescence relative to control cells are interpreted to indicate increases in permeability.

[1] = tested on: Salmonella typhimurium strain 14028; assay: susceptibility of Salmonella typhimurium strains; type: cell-based; details: parental strain 14028
[2] = tested on: Candida Albicans ATCC 36082; design: key: R, resistant; S, sensitive; details: control strain ATCC 36082; cited from earlier work
[3] = tested on: Candida Krusei ATCC 32672; design: key: R, resistant; S, sensitive; details: control strain ATCC 32672; cited from earlier work
[4] = tested on: Candida Lusitaniae ATCC 42720; design: key: R, resistant; S, sensitive; details: control strain ATCC 42720; cited from earlier work
relevant pathogens = assay: microbicidal activity in vitro at pH 5.5 vs 7.2; type: cell-based
From the text: Our preliminary data provide a basis for our central discovery that PMPs have specific, independent determinants responsible for direct antimicrobial activities and potentiation of neutrophil antimicrobial functions. We have shown that these determinants can be isolated, optimized, and utilized to design novel mosaic peptides with selective antimicrobial properties. With a goal of designing novel therapeutics that have potent and selective antimicrobial functions and low toxicity, optimizing the activities of the distinct structural determinants in such peptides is essential.
Controls contain buffer alone or non-antimicrobial proteins and organism as above. Mixtures are incubated at 37° C. for up to 48 hours, after which aliquots are quantitatively cultured and incubated for 24 to 48 hours. Killing is expressed as decrease in logarithm10 surviving CFU/ml. The limit of sensitivity in microbicidal assays is considered to be a 1 log reduction in viable cells.

[5] = tested on: Staphylococus Aureus ATCC 27217; design: key: R, resistant; S, sensitive; details: control strain ATCC 27217; cited from earlier work
[6] = tested on: Streptococcus pneumonia ATCC 35088; design: key: R, resistant; S, sensitive; details: control strain ATCC 35088; cited from earlier work
[7] = tested on: Enterococcus Faecalis ATCC 47707; design: key: R, resistant; S, sensitive; details: control strain ATCC 47707; cited from earlier work
[8] = tested on: Escherichia coli ATCC 43827; design: key: R, resistant; S, sensitive; details: control strain ATCC 43827; cited from earlier work
[9] = tested on: Pseudomonas aeruginosa ATCC 17468; design: key: R, resistant; S, sensitive; details: control strain ATCC 17468; cited from earlier work
a spectrum of pathogens = assay: antimicrobial spectra in vitro (radial diffusion assay)
Experimental: Inocula were 1×10^6 CFU/ml, and incubation conditions were pH 7.2 (RP-1, Sequence No. 3) or pH 5.5 (RP-13, Sequence No. 14), for 24 hours at 37° C.
We have used the agar radial diffusion assay to determine antimicrobial activities of proteins against microbial pathogens in vitro. One million colony forming units are mixed into 10 ml (i.e., 1×10^5 CFU/ml) of melted 1% agarose (in 10 mM NaHPO4 and cooled to 42° C.) containing minimal nutrient and adjusted to either pH 5.5 or pH 7.2. The agar is solidified in culture dishes, and sample wells are formed. Peptides at various concentrations are dissolved in 10 μl of 0.01% acetic acid buffer (pH 5.5 or 7.2), loaded into individual wells, and incubated at 37° C. for three hours. The plate is then overlayed with 1% agarose containing nutrients and incubated (37° C., for at least 24 hours). Peptides purified by RP-HPLC lacking antimicrobial activity are tested in parallel as controls. Zones of inhibition are measured to quantify antimicrobial activity.

human neutrophils [10] = assay: neutrophil phagocytosis of S. aureus pre-exposed to sub-lethal PMP-2 or serum; type: cell-based; details: organisms pre-exposed 30 minutes to sub-lethal concentrations, mixed with neutrophils (20:1), 37° C., 2 hours
Experimental: (§2) We have initially studied the influence of PMP-2 on in vitro neutrophil phagocytosis and intracellular killing of S. aureus. In our preliminary experiments, a heterologous system was established employing human neutrophils, pooled normal human serum, or crude rabbit PMP-2. Organisms (5×10^7/ml) were pre-exposed to sub-lethal concentrations of serum or PMP-2 for 30 minutes, washed, mixed with neutrophils (20:1), and incubated at 37° C. for 2 hours. We observed a significant increase in phagocytosis of S. aureus when pre-exposed to PMP-2 (mean organisms/neutrophil=11.2), as compared with serum (mean organisms/neutrophil=6.4) or buffer control (mean organisms/neutrophil=3.7; P<0.05 for PMP-2 vs. serum or buffer). To quantify intracellular killing, neutrophils were lysed, and aliquots quantitatively cultured to enumerate surviving S. aureus cells.

human neutrophils [11] = assay: intracellular killing of S. aureus by neutrophils; type: cell-based; details: 2 hour time point, neutrophils lysed, quantitative culture
Experimental: as §2

S. aureus strain JB-1 = assay: flow cytometry of membrane depolarization (DiOC5), permeabilization (PI) and killing, PMP-resistant strain; type: cell-based; details: PMP-resistant strain JB-1 compared with PMP-susceptible strain
From the text: as §1, with “This was associated with increased depolarization, permeabilization, and killing of the PMP^R strain due to PMP-2. Therefore, the mechanism of PMP-2 action involves rapid, pH-dependent membrane permeabilization with membrane depolarization. These effects were different from hNP-1, or the cationic antibacterial agents protamine or gentamicin.” left out
Flow cytometry can also be used to examine kinetics and mechanisms of the action of the peptides on bacterial membrane integrity and energetics. […] For flow cytometry, organisms are washed, sonicated, counted, and resuspended in K^+MEM buffer. Reductions in mean DiOC5 fluorescence relative to controls are interpreted to represent loss of DiOCs, indicating membrane depolarization. Positive control cells exposed to valinomycin, as well as control cells not exposed to any peptides, are analyzed for DiOC5 fluorescence in parallel.
Propidium iodide is excluded from cells with normal membrane integrity, but enters cells permealized to molecules ≧2 nm in diameter, and can be stimulated to emit fluorescence at >620 nm. […]

S. aureus = assay: transmission electron microscopy of bacterial cells after peptide exposure; type: cell-based; details: 10 μg/ml, as little as 15-60 min
From the text: PMPs and tPMPs target and disrupt microbial cytoplasmic membranes. We have investigated morphologic consequences of rabbit PMP-2 and tPMP-1 exposure to bacterial cells, protoplasts, and lipid bilayers in vitro using transmission electron microscopy (TEM) and biophysical techniques. […] Ultrastructural damage precedes detectable bactericidal and bacteriolytic effects. […] It is important to reiterate that PMPs are likely released into the bloodstream in response to infection, such that they presumably accumulate locally at sites of infection to act directly and indirectly in antimicrobial host defense.

human erythrocytes = type: cell-based
From the text: (§3) The majority of known mammalian antimicrobial peptides have been localized within leukocytes (e.g., defensins), or secreted onto epithelial surfaces such as intestinal lumen or tracheal epithelium (e.g., cryptdins, tracheal antimicrobial peptide). Prohibitive levels of mammalian cell toxicity have been noted with many of these peptides when they have been tested as antimicrobial therapeutics. In contrast, PMPs exert potent in vitro microbicidal activity against a broad spectrum of bacteria and fungi under physiological conditions that exist in the intravascular space. Several PMPs are released from platelets stimulated with agonists associated with infection. Therefore, in response to tissue injury, PMPs are likely released into the mammalian bloodstream at localized sites of infection. […] These potencies compare favorably to potent conventional antimicrobial agents such as aminoglycosides or amphotericin B.
Four-percent (vol/vol) of washed human erythrocytes (in PBS alone, or in PBS plus 10% heat-inactivated PNHS are incubated with selected peptides ranging in concentration up to 100 times greater than geometric mean MICs. After 24 hours of incubation at 37° C., erythrocyte permeabilization and hemolysis are determined spectrophotometrically. Permeabilization and hemolysis will be compared to buffers alone, and with a triton X-100 control (100% hemolysis).

[12] = tested on: vascular endothelial cells; type: cell-based, human
From the text: as §3
Endothelial cell injury due to peptides is measured using a standard chromium (^51Cr) release assay, described in Filler, S. G., et al., “Candida stimulates endothelial cell eicosanoid production” J Infect Dis. […] After a predetermined incubation period, the medium is aspirated and the amount of ^51Cr released into the medium is measured by scintillation. […]

For hNP-1: human neutrophil defensin NP-1, the “pH dependence of membrane permeabilization” value (S. aureus strain 6850; pH 7.2 vs pH 5.5) was “greater at pH 7.2 than at pH 5.5”, the “membrane permeabilization, PMP-susceptible vs PMP-resistant strain” value (S. aureus strain 6850; strains 6850 and JB-1 compared) was “equivalent” and the susceptibility of strain [1] was “intrinsically resistant”.

In the case of `OC(Cn1cncn1)(Cn1cncn1)c1ccc(F)cc1F` [Flu, fluconazole], the “Antibiotic Resistance Phenotype” value [2] is given as “S”, the “Antibiotic Resistance Phenotype” value [3] is given as “R” and the “Antibiotic Resistance Phenotype” value [4] is given as “R”.

For H-ATKKNGRKLCLDLQAAL-OH [PMP-246-63], the “pH dependence of microbicidal activity” value (relevant pathogens) was “significantly amplified at pH 5.5 as compared to pH 7.2”.

For `C[C@@H]1[C@H](O)[C@@H](C)/C=C/C=C/C=C/C=C/C=C/C=C/C=C/[C@H](O[C@@H]2O[C@H](C)[C@@H](O)[C@H](N)[C@@H]2O)C[C@@H]2O[C@](O)(C[C@@H](O)C[C@@H](O)[C@H](O)CC[C@@H](O)C[C@@H](O)CC(=O)O[C@H]1C)C[C@H](O)[C@H]2C(=O)O` [Amb, amphotericin B], the “Antibiotic Resistance Phenotype” value [2] is given as “S”, the “Antibiotic Resistance Phenotype” value [3] is given as “S” and the “Antibiotic Resistance Phenotype” value [4] is given as “R”.

For `CN[C@H](CC(C)C)C(=O)N[C@H]1C(=O)N[C@@H](CC(N)=O)C(=O)N[C@H]2C(=O)N[C@H]3C(=O)N[C@H](C(=O)N[C@H](C(=O)O)c4cc(O)cc(O)c4-c4cc3ccc4O)[C@H](O)c3ccc(c(Cl)c3)Oc3cc2cc(c3O[C@@H]2O[C@H](CO)[C@@H](O)[C@H](O)[C@H]2O[C@H]2C[C@](C)(N)[C@H](O)[C@H](C)O2)Oc2ccc(cc2Cl)[C@H]1O` [Van, vancomycin], the “Antibiotic Resistance Phenotype” value [5] is given as “S”, the “Antibiotic Resistance Phenotype” value [6] is given as “S” and the “Antibiotic Resistance Phenotype” value [7] is given as “R”. For the same molecule, the “Antibiotic Resistance Phenotype” value [8] was “S” and the “Antibiotic Resistance Phenotype” value [9] was “R”.

For ALYKKFKKKLLKSLKRLG [RP-1], the “pH optima for microbicidal activity” value (a spectrum of pathogens) was 7.2 pH and the “concentration for microbicidal activity” value (a spectrum of pathogens; in vitro) was “nanomolar concentration”.

B1: PMP-2: 74 residue rabbit platelet microbicidal protein, variant of PMP-1, analogue of rPF-4 (protein, listed as Oryctolagus cuniculus)
chain: SDDPKESEGDLHCVCVKTTSLVRPRHITNLELIKAGGHCPTANLIATKKNGRKLCLDLQAALYKKKIIKKLLES
With B1 the “phagocytosis of S. aureus, mean organisms/neutrophil” value (human neutrophils [10]) was 11.2 organisms/neutrophil, the “S. aureus cells surviving intracellular killing” value (human neutrophils [11]) was 23.8% and the “depolarization, permeabilization and killing” value (S. aureus strain 6850; PMP-susceptible strain 6850) was “rapidly depolarized, permeabilized, and killed”. For the same molecule, the “pH dependence of depolarization, permeabilization and killing” value (S. aureus strain 6850; pH 5.5 vs. pH 7.2) was “significantly greater at pH 5.5 vs. pH 7.2”, the “depolarization, permeabilization and killing” value (S. aureus strain JB-1) was “significantly less” and the susceptibility of strain [1] was “as susceptible to PMP-2 as hNP-1 hypersusceptible strains 4252s and 5996s”. The “ultrastructural damage (TEM)” value (S. aureus) was “Rapid cytoplasmic membrane disruption, followed by cell wall swelling”, the “damage of human erythrocytes” value (human erythrocytes) was “minimal damage” and the “damage of vascular endothelial cells” value [12] was “minimal damage”. The “pH dependence of microbicidal activity” value (relevant pathogens) was “significantly greater microbicidal activity at pH 5.5 vs. 7.2”.
